Experimental data taken from patent publication US20180321220A1, “UNIVERSAL BIOELECTROCHEMICAL METABOLIC FLUX MEASUREMENT SYSTEM AND METHODS OF MAKING AND USING THE SAME” (Saint Louis University, priority 2015, published 2018).

Legend:
mouse liver mitochondria [1] = conditions: pyruvate as substrate, in words; Dröse et al. cited; cited from earlier work
mouse liver mitochondria [2] = test: Metabolic flux analysis (amperometry) of mouse liver mitochondria suspension; type: biochemical; conditions: for inhibitory response (electron flux): substrate not stated; for inhibitory response (electron flux) / attenuation of electron flux: in words; for Electron flux generated: rotenone present (1 μl of 1 mg/ml in DMSO), 120 seconds of measurement, 600 mV
Description: (§1) Materials. Sodium phosphate monobasic (Sigma), sodium phosphate dibasic (Sigma), sodium chloride (Sigma), sodium pyruvate (Sigma), citric acid (Sigma), rotenone (Sigma), adenosine diphosphate (Sigma), sucrose (Sigma), Tris-EDTA (Sigma), Protease inhibitor cocktail (Sigma), deionized water (in house), and dimethylsulfoxide (Sigma) were used as received. All wild-type Drosophila larvae were hatched and grown on standard cornmeal-agar-molasses-yeast food at room temperature. Individual larvae were selected used for metabolic flux analysis. Mitochondria were isolated from normal mice liver. All steps were carried out at 4° C. Tissues were kept on ice. The liver tissue was homogenized in 3 volumes of Buffer A (0.33 M sucrose, 1.33 m M Tris-EDTA, pH 7.4 buffer containing protease inhibitors) using potter Dounce homogenizer. Once homogenized two more volumes of Buffer A were added and mixed before centrifugation at 1000 Xg for 10-15 mins. The supernatant was then recovered and centrifuged 2 times more to remove impurities. Finally, the supernatant was recovered and centrifuged at 15,000 Xg for 20 mins. The mitochondrial pellet recovered from the bottom of the centrifuge tube and suspended at a protein concentration of 35 mg/ml in phosphate buffered saline at pH 7.5. Once the extraction was complete the mitochondria was stored at −80° C. in small aliquots for further use.
Metabolic flux analysis. The electrochemical test setup consisted of a USTAT 200 Bipotentiostat coupled to a Dropsens SPE 110 screen printed electrode chip that included a carbon working electrode, a carbon counter electrode, and a silver reference electrode. The working substrate solution consisted of pH 7.40 10 mM phosphate buffer, 137 mM sodium chloride, 10 mM metabolic substrate, and 1 mg/ml adenosine diphosphate. The inhibitor solution consisted of 1 mg/ml rotenone in dimethyl sulfoxide. For uninhibited experiments pure dimethyl sulfoxide was used to maintain consistency. To the electrode 35 μl of substrate solution was dropped on top of the 3 electrode working area of the chip ensuring that all of the electrode surfaces were thoroughly wetted. To this drop, 1 μl of dimethyl sulfoxide was added that may or may not contain inhibitor. When the experiment was ready to begin the sample was added to the electrode. For mitochondrial suspension, 15 μL of the suspension was added to the working area of the chip. For the larvae, one larvae was placed into the drop of solution on to the working electrode. Amperometry was then performed with an applied potential of 600 mV with respect to the reference electrode for 120 seconds.

whole drosophilae larvae = test: Metabolic flux analysis (amperometry) of whole Drosophila larvae; type: in vivo
Description: as §1, with “Once the extraction was complete the mitochondria was stored at −80° C. in small aliquots for further use.” left out
Metabolic flux analysis. […] When the experiment was ready to begin the sample was added to the electrode. […]

Compound | inhibition of electron flux (mouse liver mitochondria [1]) | inhibitory response (electron flux) (mouse liver mitochondria [2]) | attenuation of electron flux (mouse liver mitochondria [2]; citrate as metabolic substrate) | Electron flux generated (mouse liver mitochondria [2]; citrate as substrate) | attenuation of electron flux (mouse liver mitochondria [2]; pyruvate as metabolic substrate) | Electron flux generated (mouse liver mitochondria [2]; pyruvate as substrate) | Electron flux generated (whole drosophilae larvae; glucose as substrate, rotenone present (1 μl of 1 mg/ml in DMSO), 120 seconds of measurement, 600 mV) | attenuation of metabolic flux (whole drosophilae larvae; glucose solution, in words)
CC1=NS(=O)(=O)c2cc(Cl)ccc2N1 [diazoxide] | partial inhibition | – | – | – | – | – | – | –
antimycin | – | strong inhibitory responses | – | – | – | – | – | –
C=C(C)[C@H]1Cc2c(ccc3c2O[C@@H]2COc4cc(OC)c(OC)cc4[C@@H]2C3=O)O1 [rotenone] | – | strong inhibitory responses | did not exhibit significant inhibition | 1.536×10^−4 micromoles of electrons | diminished | 1.435×10^−4 micromoles of electrons | 3.302×10^−4 micromoles of electrons | diminished
